Measured values reported in US20160199298A1, “FOSFESTROL FOR USE IN CURATIVE OR PALLIATIVE TREATMENT OF CANCER IN FEMALE MAMMALS” (CHAMAELEO PHARMA BVBA, priority 2012, published 2016).

Key:
[1] = tested on: postmenopausal women with metastatic breast cancer; settings: women initially treated; cited from earlier work
[2] = tested on: MCF-7 cells; settings: 4 days, 5 μM (2 μg/ml); cited from earlier work
[3] = tested on: postmenopausal breast cancer patients heavily exposed to endocrine therapy; settings: 15 mg daily p.o., cited from earlier work
[4] = tested on: hormone independent mammary carcinomas; settings: very high doses in vivo; cited from earlier work
[5] = prostate cancer patients, 5 mg p.o. per day; cited from earlier work
[6] = tested on: MDA-MB-231 Cells; assay: in vitro direct cytotoxicity, Cell titer blue viability assay; format: cell-based; settings: MDA-MB-231 cells (hormone-insensitive), 72 hrs incubation, 1% FBS assay media
Procedure: (§1) Cells were maintained in vitro in RPMI 1640 containing 10% (v/v) heat inactivated fetal bovine serum (FBS) and 2 mM L-glutamine (growth media) at 37° C. in 5% CO2 and humidified conditions. Cells were harvested, washed, re-suspended into growth medium and counted. The cells were re-suspended into assay media (RPMI 1640+1% (v/v) heat inactivated FBS+ and 2 mM L-glutamine) at 0.5-1×10^5 cells/ml (dependent on cell type), and plated into 96-well assay plates (Corning, black-wall plates) and 50 μl/well aliquots.
(§2) Plates were incubated O/N at 37° C. in 5% humidified CO2 prior to addition of the compounds. […] Fosfestrol was dissolved in sterile water at stock concentration of 60 mM.
(§3) Stocks of all compounds were then serially diluted and final concentration to which cells were exposed were: 300, 150, 75, 37.5, 18.75, 9.4, 4.7, 2.3, 1.2 and 0.6 μM. Positive control was Cisplatin. Cisplatin was diluted in 1% FBS medium to give a stock concentration of 1 mM. Cisplatin stock was serial diluted and final concentration to which cells were exposed was: 100, 50, 25, 12.5, 6.3, […], 1.6, 0.8, 0.4, 0.2 μM.
(§4) Plates were incubated for 72 hrs at 37° C. in 5% humidified CO-2 after addition of the compounds. Viability of the cells was assessed with the Cell titer blue® (Promega) assay. […] Fluorescence was measured with a Flex II station plate reader. […]

[7] = tested on: MCF7 Cells; assay: as above; format: cell-based; settings: MCF7 cells (hormone-sensitive), 72 hrs incubation, 1% FBS assay media
Procedure: as §1, §2, §3, §4

SMILES | 5-year survival [1] | median survival [1] | reduction in cell growth [2] | other results
CC/C(=C(\c1ccccc1)c1ccc(OCCN(C)C)cc1)c1ccccc1 [tamoxifen] | 16% | 2.4 years | – | –
CC/C(=C(/CC)c1ccc(OP(=O)(O)O)cc1)c1ccc(O)cc1 [DES monophosphate] | – | – | no effect at all | –
CC/C(=C(/CC)c1ccc(O)cc1)c1ccc(O)cc1 [DES, diethylstilbestrol] | 35% | 3.0 years | no effect at all | efficacy in highly pretreated patients [3]: effective; patients who stopped therapy because of side effects ([3]; six patients): 19%; effect on hormone independent mammary carcinomas [4]: no effect; increase in non-cancer related deaths, mostly cardiovascular [5]: 36%
N.N.[Cl][Pt][Cl] [Cisplatin] | – | – | – | IC50 [6]: 13 µM; IC50 [7]: 2800 nM
